# Assay results published in patent US20250304560A1, “MODULATORS OF NLRP3 INFLAMMASOME AND RELATED PRODUCTS AND METHODS” (Neumora Therapeutics, Inc., priority 2022, published 2025).
# Like-named read-outs stand apart in the source and are kept apart here.
# Assays:
# IL-6 = IL-6 AlphaLISA in LPS-primed THP1 macrophages
# NLRP3 inflammasome = NLRP3 inflammasome (Homo sapiens, UniProt Q96P20); experiment: NLRP3 inflammasome activation in THP1 macrophages, IL-1β AlphaLISA
# [1] = Homo sapiens, THP-1, read-out: IL-6 Activity (μM), THP1 macrophages, PMA, LPS priming, nigericin 6.7 uM
# [2] = IL-1β Activity (nM), THP1 macrophages, PMA, LPS priming, nigericin 6.7 uM activation
# [3] = Homo sapiens, THP-1, read-out: IL-6 Activity (μM)
# NLRP3 inflammasome, sequence (Q96P20 whole entry): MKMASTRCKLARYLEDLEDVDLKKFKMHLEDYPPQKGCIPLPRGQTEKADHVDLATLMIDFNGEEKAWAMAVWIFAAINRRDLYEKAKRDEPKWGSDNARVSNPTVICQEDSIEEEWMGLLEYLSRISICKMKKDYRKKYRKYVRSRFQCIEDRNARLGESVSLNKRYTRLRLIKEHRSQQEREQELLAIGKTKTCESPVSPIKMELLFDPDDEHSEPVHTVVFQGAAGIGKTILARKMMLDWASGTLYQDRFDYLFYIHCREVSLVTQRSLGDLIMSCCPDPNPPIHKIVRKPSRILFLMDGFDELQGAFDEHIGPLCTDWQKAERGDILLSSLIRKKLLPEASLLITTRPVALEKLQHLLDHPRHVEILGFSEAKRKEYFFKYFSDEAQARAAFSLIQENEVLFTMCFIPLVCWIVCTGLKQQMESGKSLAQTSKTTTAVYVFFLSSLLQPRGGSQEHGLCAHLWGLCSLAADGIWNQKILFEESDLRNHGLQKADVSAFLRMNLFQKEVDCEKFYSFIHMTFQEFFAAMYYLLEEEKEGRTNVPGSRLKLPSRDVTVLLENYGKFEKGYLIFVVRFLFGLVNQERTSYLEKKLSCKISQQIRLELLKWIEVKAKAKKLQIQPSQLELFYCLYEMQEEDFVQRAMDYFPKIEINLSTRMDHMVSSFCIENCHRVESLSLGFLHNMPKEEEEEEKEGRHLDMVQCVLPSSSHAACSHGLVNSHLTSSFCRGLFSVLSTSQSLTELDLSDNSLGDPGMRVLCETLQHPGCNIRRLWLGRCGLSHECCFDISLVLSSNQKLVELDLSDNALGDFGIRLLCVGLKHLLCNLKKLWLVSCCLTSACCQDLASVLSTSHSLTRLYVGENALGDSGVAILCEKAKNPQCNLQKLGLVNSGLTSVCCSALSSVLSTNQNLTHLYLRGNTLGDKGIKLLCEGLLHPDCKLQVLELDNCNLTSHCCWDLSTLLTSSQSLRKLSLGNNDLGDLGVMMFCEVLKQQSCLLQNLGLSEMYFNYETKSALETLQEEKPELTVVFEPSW
Compound,IC50 (IL-6; [1]) [µM],IC50 (NLRP3 inflammasome; [2]) [nM],IC50 (IL-6; [3]) [µM],IC50 (NLRP3 inflammasome) [nM],"IC50 (IL-6; read-out: IL-6 Activity, THP1 macrophages, PMA, LPS priming, nigericin 6.7 uM) [µM]"
Cc1cc(-c2ccc(F)cc2O)nnc1N[C@@H]1CCCN(C)C1 [compound 77],> 10,10 to 100,,,
Cc1cc(N[C@H]2CN(C)CC(F)(F)C2)nnc1-c1ccccc1O [compound 40],> 10,500 to 1000,,,
Cc1cc(NC[C@@H]2COCCO2)nnc1-c1ccccc1O [compound 120],,,> 10,> 1000,
CN1CCC[C@@H](Nc2cc(F)c(-c3ccccc3O)nn2)C1 [compound 52],> 10,1 to 10,,,
Cc1cc(NC[C@@H]2CCCN2C)nnc1-c1ccccc1O [compound 121],,,> 10,> 1000,
Cc1cc(N[C@@H]2CCN(C)C2)nnc1-c1ccc(C(F)(F)F)cc1O [compound 96],> 10,1 to 10,,,
Cc1cc(CC2CCCN(C)C2)nnc1-c1ccc(C#N)cc1O (stereo not shown) [compound 102],,,> 10,100 to 500,
"Cc1cc(O[C@@H]2CCCN(C)C2)nnc1-c1ccc(C(F)(F)F)cc1O [compound 73, (R)-2-(4-methyl-6-((1-methylpiperidin-3-yl)oxy)pyridazin-3-yl)-5-(trifluoromethyl) phenol]",,,> 10,> 1000,
Cc1cc(N(C)[C@@H]2CCN(C)C2)nnc1-c1ccc(C(F)(F)F)cc1O [compound 97],,,> 10,10 to 100,
Cc1cc(N2CCC[C@@H](N(C)C)C2)nnc1-c1ccccc1O [compound 111],,,> 10,100 to 500,
CCN1CCC[C@@H](Nc2ccc(-c3c(C)cc(F)cc3O)nn2)C1 [compound 60],> 10,< 1,,,
Cc1cc(-c2ccccc2O)nnc1N[C@@H]1CCCN(C)C1 [compound 8],> 10,1 to 10,,,
CCN1CCC[C@@H](Nc2cc(C)c(-c3ccccc3O)nn2)C1 [compound 56],> 10,< 1,,,
Cc1cc(NCC2CCOCC2)nnc1-c1ccccc1O [compound 115],,,> 10,> 1000,
Cc1c(F)ccc(-c2ccc(N[C@@H]3CCCN(C)C3)nn2)c1O [compound 10],5 to 10,10 to 100,,,
Cc1cc(N(C)[C@@H]2CCCN(C)C2)nnc1-c1ccccc1O [compound 23],> 10,10 to 100,,,
Cc1cccc(-c2ccc(N[C@@H]3CCCN(C)C3)nn2)c1O [compound 5],> 10,1 to 10,,,
Cc1cc(-c2c(C)cc(F)cc2O)nnc1N[C@@H]1CCCN(C)C1 [compound 84],> 10,1 to 10,,,
Cc1cc(F)cc(O)c1-c1ccc(O[C@@H]2CCCN(C)C2)nn1 [compound 72],,,> 10,10 to 100,
Cc1cc(NC[C@@H]2CCCO2)nnc1-c1ccccc1O [compound 117],,,> 10,500 to 1000,

Compound,IC50 (IL-6; [1]) [µM],IC50 (NLRP3 inflammasome; [2]) [nM],IC50 (IL-6; [3]) [µM],IC50 (NLRP3 inflammasome) [nM],"IC50 (IL-6; read-out: IL-6 Activity, THP1 macrophages, PMA, LPS priming, nigericin 6.7 uM) [µM]"
Cc1cc(N(C)[C@@H]2CCCN(C)C2)nnc1-c1ccc(C#N)cc1O [compound 90],> 10,< 1,,,
Cc1cc(-c2ccc(F)cc2O)nnc1O[C@@H]1CCCN(C)C1 [compound 35],,,5 to 10,10 to 100,
Cc1ccc(O)c(-c2ccc(N(C)[C@@H]3CCCN(C)C3)nn2)c1 [compound 19],5 to 10,> 1000,,,
CN1CC[C@@H](N(C)c2ccc(-c3ccccc3O)nn2)C1 [compound 33],,,> 10,> 1000,
Cc1cc(N[C@@H]2C[C@H](F)CN(C)C2)nnc1-c1ccc(F)cc1O [compound 47],> 10,10 to 100,,,
Cc1cc(N[C@@H]2CCCN(C)C2)nnc1-c1ncccc1O [compound 108],,,> 10,100 to 500,
Cc1cc(N(C)[C@@H]2CCCN(C)C2)nnc1-c1ccc(F)c(C)c1O [compound 64],> 10,1 to 10,,,
Cc1cc(NC[C@H]2CCC(F)(F)C2)nnc1-c1ccccc1O [compound 113],,,> 10,> 1000,
Cc1cc(-c2nnc(N(C)[C@@H]3CCCN(C)C3)cc2C)c(O)cc1F [compound 66],5 to 10,100 to 500,,,
Cc1cc(N[C@@H]2CCCN(CCF)C2)nnc1-c1ccc(F)cc1O [compound 44],> 10,1 to 10,,,
Cc1cc(N2CCC[C@@H](N(C)C)C2)nnc1-c1ccc(C#N)cc1O [compound 112],,,> 10,> 1000,
Cc1cc(N[C@H]2CN(C)CC[C@@H]2F)nnc1-c1ccccc1O [compound 43],> 10,10 to 100,,,
Cc1cc(N[C@@H]2CCCN(C(C)C)C2)nnc1-c1ccccc1O [compound 57],5 to 10,< 1,,,
Cc1cc(-c2ccc(N(C)[C@@H]3CCCN(C)C3)nn2)c(O)cc1F [compound 25],1 to 5,> 1000,,,
Cc1cc(C[C@H]2CCCN(C)C2)nnc1-c1ccc(C(F)(F)F)cc1O [compound 104],,,> 10,1 to 10,
Cc1cc(-c2ccccc2O)nnc1O[C@@H]1CCCN(C)C1 [compound 99],,,> 10,> 1000,
"Cc1cc(C[C@H]2CCCN(C)C2)nnc1-c1ccc(F)cc1O [compound 106, (R)-5-fluoro-2-(4-methyl-6-((1-methylpiperidin-3-yl)methyl)pyridazin-3-yl) phenol]",,,> 10,> 1000,
Cc1cc(N[C@@H]2CCCN(C)C2)nnc1-c1c(C)cccc1O [compound 69],5 to 10,1 to 10,,,
Cc1cc(N[C@@H]2CCCN(C)C2)nnc1-c1c(C)cc(F)cc1O [compound 62],> 10,1 to 10,,,
Cc1cc(C[C@@H]2CCCN(C)C2)nnc1-c1ccc(C(F)(F)F)cc1O [compound 37],,,> 10,500 to 1000,

Compound,IC50 (IL-6; [1]) [µM],IC50 (NLRP3 inflammasome; [2]) [nM],IC50 (IL-6; [3]) [µM],IC50 (NLRP3 inflammasome) [nM],"IC50 (IL-6; read-out: IL-6 Activity, THP1 macrophages, PMA, LPS priming, nigericin 6.7 uM) [µM]"
CN1CCC[C@@H](N(C)c2ccc(-c3ccccc3O)nn2)C1 [compound 17],> 10,> 1000,,,
Cc1cc(N[C@@H]2CCCN(C)C2)nnc1-c1ccc(F)c(C)c1O [compound 63],,< 1,,,> 10
Cc1cc(-c2ccc(C#N)cc2O)nnc1O[C@@H]1CCCN(C)C1 [compound 101],,,> 10,> 1000,
Cc1cc(-c2ccc(F)c(C)c2O)nnc1N[C@@H]1CCCN(C)C1 [compound 80],5 to 10,1 to 10,,,
Cc1cc(O[C@@H]2CCCN(C)C2)nnc1-c1ccccc1O [compound 71],,,> 10,10 to 100,
Cc1c(F)ccc(-c2ccc(N(C)[C@@H]3CCCN(C)C3)nn2)c1O [compound 24],1 to 5,10 to 100,,,
Cc1cc(-c2nnc(N[C@@H]3CCCN(C)C3)cc2C)c(O)cc1F [compound 65],> 10,1 to 10,,,
Cc1cc(C2CC2)cc(O)c1-c1ccc(N[C@@H]2CCCN(C)C2)nn1 [compound 13],,,> 10,1 to 10,
Cc1cc(-c2ccc(C(F)(F)F)cc2O)nnc1O[C@@H]1CCCN(C)C1 [compound 98],,,> 10,100 to 500,
Cc1cc(N(C)[C@@H]2CCCN(C)C2)nnc1-c1ccc(F)cc1O [compound 26],> 10,1 to 10,,,
Cc1cc(-c2ccc(N[C@@H]3CCCN(C)C3)nn2)c(O)cc1F [compound 9],> 10,100 to 500,,,
Cc1cc(-c2ccc(C(=O)O)cc2O)nnc1N[C@@H]1CCCN(C)C1 [compound 93],> 10,> 1000,,,
Cc1ccc(O)c(-c2ccc(N[C@@H]3CCCN(C)C3)nn2)c1 [compound 4],> 10,100 to 500,,,
Cc1ccc(-c2cc(C)c(N[C@@H]3CCCN(C)C3)nn2)c(O)c1 [compound 82],< 1,10 to 100,,,
CCN1CCC[C@@H](Nc2cc(C)c(-c3ccc(F)cc3O)nn2)C1 [compound 58],5 to 10,< 1,,,
Cc1cc(O[C@@H]2CCCN(C)C2)nnc1-c1ccc(C#N)cc1O [compound 100],,,> 10,100 to 500,
Cc1cc(NCC23CC(CO2)C3)nnc1-c1ccccc1O [compound 118],,,> 10,> 1000,
Cc1cc(-c2cccc(C)c2O)nnc1N[C@@H]1CCCN(C)C1 [compound 81],> 10,1 to 10,,,
CN1CC[C@@H](N(C)c2ccc(-c3ccc(F)cc3O)nn2)C1 [compound 32],,,> 10,> 1000,
